Test results as given in patent US20260274810A1, “NOVEL MITOFUSIN INHIBITORS” (ALBERT EINSTEIN COLLEGE OF MEDICINE, priority 2023, published 2026).

Test system: Tomm20, mitotracker green, mtDNA/nDNA, mitochondrial biogenesis markers
Assay: Mitochondrial biomass and biogenesis markers
Assay type: cell-based
Procedure: Western blot. Western blots were performed from whole cell lysates (WCL) prepared in lysis buffer containing 50 mM Tris-HCl pH 7.5, 1% Triton X-100, 150 mM NaCl, 5 mM MgCl2, 1 mM EGTA and 10% glycerol in the presence of protease inhibitor cocktail (Roche). WCL were separated on a 4-12% NuPAGE MES gel (Invitrogen), transferred into a PVDF membrane, block for 1 hr and immunoblot with the corresponding anti-bodies.
Analysis of mitochondrial biogenesis-related genes by q-PCR. Total RNA was extracted by using RNeasy Mini Kit (Qiagen) followed by cDNA synthesis using the SuperScript IV VILO Master Mix (Thermo Scientific), both performed according to the manufacturer's protocol. q-PCR was performed using the following primers: […]
For the q-PCR reaction, Power SYBR Green master mix (Thermo Scientific) was used according to the manufacturer's instructions. Briefly, each reaction consisted of 10 ng cDNA, 5 μL Power SYBR Green master mix, 200 nM primers (forward and reverse), and RNase-free water up to 10 μL. q-PCR was performed on the ViiA 7 Real-Time PCR System (Thermo Scientific) with the following cycle parameter: 95° C. for 10 min, 40 cycles of 95° C. for 15 s, and 60° C. for 1 min. q-PCR products were analyzed by melting curves for unspecific products or primer dimer formation. Rpi39 was used as housekeeping gene and 2^−ΔΔCT method was applied to determine the relative mRNAs expression. […]

Cc1cccc(NC(C)c2cc(Cl)ccc2O)c1C (centres unmarked) [MFI8]
gene expression levels of mitochondrial biogenesis markers: no alteration
Tomm20 protein levels, mitotracker green intensity and mitochondrial to nuclear DNA ratio (mitochondrial biomass): neither MASM7 nor MFI8 altered
